For orientation: IC50 means the point on the concentration scale where inhibition reaches its midpoint. Higher therefore signals a need for much substance.

Common to all, as to assay: Cell proliferation assay (Alamar Blue)
Common to all, as to format: cell-based

For one experiment, the system named is HCT-116. Particulars: Homo sapiens, 96 h, HCT-116 cells, four days.
The subject of the next experiment is H1299. Particulars: Homo sapiens, NCI-H1299, 96 h, H1299 cells, four days. Summed up:
(§1)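 Cells plated at 4,000-5,000 per well, then exposed to compound for four days at 37°C, 5% CO2. Alamar Blue added for a further 4 h; fluorescence read at ex 544/em 590 nm. Medium-only wells served as blank, cells without compound as untreated control.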

Another experiment has as its system Hs578T. As to conditions: Homo sapiens, Hs-578T, 96 h, Hs578T cells, four days. A digest of the protocol: as §1
In the next experiment the test system is Jurkat. As to conditions: Homo sapiens, 96 h, Jurkat cells, four days. Summed up:
as §1

The test system of the next experiment is PC3. Particulars: Homo sapiens, PC-3, 96 h, PC3 cells, four days. Summed up:
as §1

In a further experiment the test system is MiaPaCa. Particulars: Homo sapiens, MIA PaCa-2, 96 h, MiaPaCa cells, four days. Summed up:
as §1

In a further experiment the test system is A549. Particulars: Homo sapiens, 96 h, A549 cells, four days. A digest of the protocol: as §1
Another experiment relates to LNCaP. Particulars: Homo sapiens, 96 h, LNCaP cells, four days. A digest of the protocol: as §1
The next experiment deals with MCF-7. As to conditions: Homo sapiens, MCF7, 96 h, MCF-7 cells, four days. Summed up:
as §1

The test system of a further experiment is MDAMB231. Particulars: Homo sapiens, MDA-MB-231, 96 h, MDAMB231 cells, four days. Summed up:
as §1

The test system of the next experiment is K-562. As to conditions: Homo sapiens, K562, 96 h, K-562 cells, four days.
In a further experiment the test system is BxPC3. As to conditions: Homo sapiens, BXPC-3, 96 h, BxPC3 cells, four days. Summed up:
as §1

A further experiment has as its system PanC1. Particulars: Homo sapiens, PANC-1, 96 h, PanC1 cells, four days. Summed up: as §1

Turning to `CN(C)CCNc1nc2cc(C(=O)O)ccc2c2cnccc12`, the 50% inhibitory concentration (IC50) was greater than 10 µM in the experiment with HCT-116; 3.8 µM in the experiment on H1299; 12.9 µM with Hs578T; 23.8 µM with Jurkat; 17.9 µM with PC3.

For `COC(=O)c1ccc2c(c1)nc(Nc1ccccc1)c1ccncc12`, the half-maximal inhibitory concentration (IC50) stood at 15 µM in the experiment on HCT-116; 13.1 µM with H1299; 4.78 µM in the experiment on Hs578T; 6.83 µM with Jurkat; 11.3 µM in the experiment on PC3.

On to `COc1cccc(Nc2nc3cc(C(=O)O)ccc3c3cnccc23)c1`, for which the half-inhibitory concentration (IC50) in the experiment with HCT-116 was greater than 10 µM; in the experiment on H1299 it was 10.7 µM; with Hs578T, 12.9 µM; in the experiment with Jurkat, 6.52 µM; in the experiment with MiaPaCa, greater than 10 µM; in the experiment on PC3, 17.4 µM.

As for `COC(=O)c1ccc2c(c1)nc(Nc1ccc(F)c(Cl)c1)c1ccncc12`, the IC50 came to 3.94 µM in the experiment on HCT-116; 8.46 µM in the experiment on H1299; 2.62 µM with Hs578T; 4.25 µM in the experiment on Jurkat; 9.02 µM in the experiment on PC3.

Consider `COC(=O)c1ccc2c(c1)nc(Nc1cccc(OC)c1)c1ccncc12`, for which the IC50 with HCT-116 stood at 15 µM; in the experiment on H1299, 7.16 µM; in the experiment with Hs578T it was 1.82 µM; in the experiment with Jurkat, 3.4 µM; with PC3, 11.3 µM.

Consider `COC(=O)c1ccc2c(c1)nc(Nc1ccc(F)c(Cl)c1)c1ncncc12` [drawing 295], for which the IC50 with HCT-116 was greater than 10 µM; in the experiment on H1299, 15.4 µM; with Hs578T, 3.7 µM; in the experiment with Jurkat it was 20.3 µM; in the experiment on PC3 it was 15.8 µM.

Consider `O=C(O)c1ccc2c(c1)nc(Nc1ccc(F)c(Cl)c1)c1ncncc12` [drawing 296], for which the 50% inhibitory concentration (IC50) in the experiment with H1299 came to 7.55 µM; in the experiment on Hs578T it was 9.7 µM; in the experiment on Jurkat, 4.29 µM; in the experiment on MiaPaCa it was 1.22 µM; in the experiment on PC3 it was 18.8 µM.

As for `O=C(O)c1ccc2c(c1)nc(Nc1cccc(F)c1)c1ccncc12` [drawing 298], the IC50 in the experiment with H1299 worked out at 8.32 µM; with Hs578T it was 5.89 µM; with Jurkat it was 3.19 µM; in the experiment with MiaPaCa it was 6.86 µM; in the experiment on PC3, 9.23 µM.

Take `Fc1cccc(Nc2nc3cc(-c4nnn[nH]4)ccc3c3cnccc23)c1` [drawing 305]: the half-maximal inhibitory concentration (IC50) in the experiment on HCT-116 is greater than 10 µM; with H1299, greater than 50 µM; with Jurkat, 9.43 µM; in the experiment on MiaPaCa it was greater than 10 µM; in the experiment with PC3 it was greater than 50 µM.

Consider `Fc1cc(Nc2nc3cc(-c4nnn[nH]4)ccc3c3cnccc23)ccc1Cl` [drawing 306], for which the concentration for half-maximal inhibition (IC50) is greater than 10 µM in the experiment on HCT-116; greater than 50 µM with H1299; 18.8 µM in the experiment on Jurkat; greater than 10 µM in the experiment with MiaPaCa; greater than 50 µM in the experiment with PC3.

As for `Clc1cccc(Nc2nc3cc(-c4nnn[nH]4)ccc3c3cnccc23)c1` [drawing 310], the half-inhibitory concentration (IC50) in the experiment on HCT-116 is greater than 10 µM; in the experiment on H1299 it was greater than 50 µM; with Jurkat it was 14.2 µM; in the experiment on MiaPaCa it was greater than 10 µM; in the experiment on PC3 it was 46.6 µM.

As for `N#Cc1cccc(Nc2nc3cc(C(=O)O)ccc3c3cnccc23)c1` [drawing 312], the IC50 in the experiment on HCT-116 was greater than 10 µM; with Hs578T it was 35.6 µM; in the experiment on Jurkat it was 22 µM; in the experiment on MiaPaCa it was greater than 10 µM; in the experiment on PC3 it was 26.4 µM.

`O=C(O)c1ccc2c(c1)nc(Nc1cccc(F)c1)c1ccncc12` [drawing 375] came in with a half-inhibitory concentration (IC50) in the experiment on A549 of 16.6 µM.

As for `Fc1cccc(Nc2nc3cc(-c4nnn[nH]4)ccc3c3cnccc23)c1` [drawing 381], the IC50 in the experiment on A549 was greater than 50 µM; in the experiment with LNCaP, less than 0.2 µM; in the experiment with MCF-7, greater than 50 µM; with MDAMB231 it was greater than 50 µM.

Turning to `Fc1cc(Nc2nc3cc(-c4nnn[nH]4)ccc3c3cnccc23)ccc1Cl` [drawing 382], the IC50 in the experiment on A549 was greater than 50 µM; with LNCaP, 48.2 µM; with MCF-7 it was 5.94 µM; in the experiment on MDAMB231 it was greater than 50 µM; with K-562 it was greater than 50 µM.

On to `Clc1cccc(Nc2nc3cc(-c4nnn[nH]4)ccc3c3cnccc23)c1` [drawing 386], for which the IC50 in the experiment with A549 is greater than 50 µM; in the experiment with LNCaP it was 37.4 µM; in the experiment with MCF-7, greater than 50 µM; in the experiment with MDAMB231, greater than 50 µM; with K-562 it was 31.2 µM.

Turning to `N#Cc1cccc(Nc2nc3cc(C(=O)O)ccc3c3cnccc23)c1` [drawing 388], the IC50 was greater than 50 µM in the experiment on A549; 15.5 µM in the experiment on LNCaP; 41 µM in the experiment on MCF-7; 28.7 µM in the experiment on MDAMB231; 9.15 µM in the experiment on K-562.

Turning to `C#Cc1cccc(Nc2nc3cc(C(=O)O)ccc3c3cnc(NCCOCC)nc23)c1` [drawing 490], the IC50 in the experiment with BxPC3 worked out at 0.69 µM; with PanC1 it was 2.41 µM.

As for `C#Cc1cccc(Nc2nc3cc(C(=O)O)ccc3c3cnc(NCCCOCC)nc23)c1` [drawing 491], the IC50 came out at 0.48 µM with BxPC3 and 1.04 µM in the experiment on PanC1.

As to `C#Cc1cccc(Nc2nc3cc(C(=O)O)ccc3c3cnc(NCCCOC(C)C)nc23)c1` [drawing 492], the figures for the half-maximal inhibitory concentration (IC50) with BxPC3 and in the experiment with PanC1 were 0.97 µM and 3.1 µM, respectively.

`O=C(O)c1ccc2c(c1)nc(Nc1cccc(Cl)c1)c1nc(O)ncc12` [drawing 493]: the IC50 with BxPC3 was 15.8 µM; in the experiment with PanC1 it was greater than 50 µM.

Consider `Cc1ncc2c(n1)c(Nc1cccc(Cl)c1)nc1cc(C(=O)O)ccc12` [drawing 494], for which the IC50 in the experiment on BxPC3 is 8.88 µM; with PanC1, greater than 50 µM.

Take `C#Cc1cccc(Nc2nc3cc(C(=O)OC)ccc3c3cnc(NOC)nc23)c1` [drawing 495]: the results for the IC50 in the experiment on BxPC3 and in the experiment on PanC1 were 40 µM and greater than 50 µM, respectively.

On to `COC(=O)c1ccc2c(c1)nc(Nc1cccc(Cl)c1)c1nc(NCCC(N)=O)ncc12` [drawing 496], for which the IC50 in the experiment on BxPC3 amounted to 2.62 µM; in the experiment with PanC1 it was 25.5 µM.

In the case of `NC(=O)CCNc1ncc2c(n1)c(Nc1cccc(Cl)c1)nc1cc(C(=O)O)ccc12` [drawing 497], the IC50 in the experiment with BxPC3 was 20.9 µM; in the experiment with PanC1, greater than 50 µM.

For `O=C(O)CCNc1ncc2c(n1)c(Nc1cccc(Cl)c1)nc1cc(C(=O)O)ccc12` [drawing 498], the IC50 in the experiment with BxPC3 was 43.5 µM; in the experiment on PanC1 it was greater than 50 µM.

For the compound `Cc1cccc(Nc2nc3cc(C(=O)O)ccc3c3cnccc23)c1` [drawing 499], the IC50 with BxPC3 was determined as 2.23 µM; in the experiment on PanC1 it was 38 µM.

In the case of `O=C(O)c1ccc2c(c1)nc(Nc1cccc(C(F)(F)F)c1)c1ccncc12` [drawing 500], the IC50 in the experiment on BxPC3 came to 2.6 µM; with PanC1 it was 27.2 µM.

With `O=C(O)c1ccc2c(c1)nc(Nc1cc(F)cc(F)c1)c1nc(NC3CC3)ncc12` [drawing 501], the half-maximal inhibitory concentration (IC50) in the experiment on BxPC3 is 14.9 µM; in the experiment on PanC1 it was 16.1 µM.

For the compound `O=C(O)c1ccc2c(c1)nc(Nc1cccc(F)c1)c1nc(NC3CC3)ncc12` [drawing 502], the figures for the half-inhibitory concentration (IC50) in the experiment with BxPC3 and with PanC1 were 9.89 µM and 2.81 µM, respectively.

In the case of `COc1cccc(Nc2nc3cc(C(=O)O)ccc3c3cnc(NC4CC4)nc23)c1` [drawing 503], the concentration for half-maximal inhibition (IC50) in the experiment on BxPC3 came to 8.68 µM; in the experiment on PanC1, 3.48 µM.

With `CN(C)CCNc1ncc2c(n1)c(Nc1ccc(F)c(Cl)c1)nc1cc(C(=O)O)ccc12` [drawing 504], the figures for the concentration for half-maximal inhibition (IC50) in the experiment with BxPC3 and with PanC1 were 1.52 µM and 44.9 µM, respectively.

For `O=C(O)c1ccc2c(c1)nc(Nc1ccc(F)c(Cl)c1)c1nc(NCc3ccccn3)ncc12` [drawing 505], the IC50 in the experiment with BxPC3 was 11.1 µM; in the experiment with PanC1, greater than 50 µM.

Consider `COC(CNc1ncc2c(n1)c(Nc1ccc(F)c(Cl)c1)nc1cc(C(=O)O)ccc12)OC` [drawing 506], for which the 50% inhibitory concentration (IC50) in the experiment with BxPC3 came out at 2.86 µM; in the experiment with PanC1, 41.5 µM.

Regarding `NC(=O)c1ccc2c(c1)nc(Nc1cccc(C(F)(F)F)c1)c1nc(NC3CC3)ncc12` [drawing 507], the IC50 in the experiment on BxPC3 was 0.33 µM; in the experiment on PanC1 it was greater than 50 µM.

On to `O=C(NC1CC1)c1ccc2c(c1)nc(Nc1cccc(C(F)(F)F)c1)c1nc(NC3CC3)ncc12` [drawing 508], for which the half-maximal inhibitory concentration (IC50) in the experiment with BxPC3 turned out to be 2.73 µM; with PanC1, 16 µM.

Regarding `CNC(=O)c1ccc2c(c1)nc(Nc1cccc(C(F)(F)F)c1)c1nc(NC3CC3)ncc12` [drawing 509], the values for the IC50 in the experiment with BxPC3 and in the experiment with PanC1 were 3 µM and 18.9 µM, respectively.

Consider `O=C(O)c1ccc2c(c1)nc(Nc1ccc(F)c(Cl)c1)c1nc(NCc3cccnc3)ncc12` [drawing 510], for which the results for the IC50 in the experiment with BxPC3 and with PanC1 were 3.16 µM and 20.9 µM, respectively.

As for `O=C(O)c1ccc2c(c1)nc(Nc1ccccc1)c1nc(Nc3ccccc3)ncc12` [drawing 512], the 50% inhibitory concentration (IC50) with BxPC3 came to 40.1 µM; in the experiment with PanC1 it was 3.72 µM.

In the case of `CC(C)OC(=O)Nc1ccc2c(c1)nc(Nc1cccc(C(F)(F)F)c1)c1nc(NC3CC3)ncc12` [drawing 513], the IC50 in the experiment on BxPC3 came to 0.9 µM; in the experiment with PanC1 it was 9.88 µM.

In the case of `CCOC(=O)CCNC(=O)c1ccc2c(c1)nc(Nc1cccc(C(F)(F)F)c1)c1nc(NC3CC3)ncc12` [drawing 514], the concentration for half-maximal inhibition (IC50) in the experiment with BxPC3 came out at 8.76 µM; in the experiment with PanC1 it was 0.44 µM.

For the origin of these results see EP2061765B1, “Serine-threonine protein kinase and PARP modulators” (Senhwa Biosciences, Inc., priority 2006, dated 2008).
